For the first test, the system named is HEK293 cells. The test can be described thus: Preliminary screening as DNA vectors, GFP transfection of HEK293 cells. The format is cell-based. The note with it: HEK293 cells; lipid/DOPE liposome with 75 ng plasmid DNA (psin-EGFP-IRES-Puro); number of cells expressing GFP divided by total number of nuclei (Hoechst). The gist of the method: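 Lipid + DOPE liposomes (NaOAc, pH 5.6) complexed w/ 75 ng psin-EGFP-IRES-Puro, 30 min RT; added to 3-5×10^4 HEK293/well, 37° C. Hoechst 0.2 μg/mL at 20-24 h, imaged after further 20-24 h. Efficiency = GFP+ cells / total nuclei.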
For `CCCCCCCCCCCCCCCCCCSc1nc(NCCN(C)C)nc(SCCCCCCCCCCCC)n1` [Compound S12S18D1], the “Absolute DNA transfection efficiency in HEK293 cells” value (from here on “Absolute DNA transfection efficiency”) was found to be 0.0%.

Turning to `CCCCCCCCCCCCCCCCCCSc1nc(NCCN2CCOCC2)nc(SCCCCCCCCCCCC)n1` [Compound S12S18D2], the “Absolute DNA transfection efficiency” value is listed as 0.0%.

With `CCCCCCCCCCCCCCCCCCSc1nc(NCCN2CCCC2)nc(SCCCCCCCCCCCC)n1` [Compound S12S18D3], the “Absolute DNA transfection efficiency” value worked out at 2.1%.

With `CCCCCCCCCCCCCCCCCCSc1nc(NCCN2CCCCC2)nc(SCCCCCCCCCCCC)n1` [Compound S12S18D4], the “Absolute DNA transfection efficiency” value was determined as 2.6%.

For `CCCCCCCCCCCCCCCCCCSc1nc(NCCN2CCN(C)CC2)nc(SCCCCCCCCCCCC)n1` [Compound S12S18D5], the “Absolute DNA transfection efficiency” value worked out at 0.7%.

As to `CCCCCCCCCCCCCCCCCCSc1nc(NCCCN(C)C)nc(SCCCCCCCCCCCC)n1` [Compound S12S18D6], the “Absolute DNA transfection efficiency” value came out at 1.0%.

For `CCCCCCCCCCCCCCCCCCSc1nc(NCCN(CC)CC)nc(SCCCCCCCCCCCC)n1` [Compound S12S18D7], the “Absolute DNA transfection efficiency” value worked out at 0.7%.

Regarding `CCCCCCCCCCCCCCCCCCSc1nc(NCCCN2CCOCC2)nc(SCCCCCCCCCCCC)n1` [Compound S12S18D8], the “Absolute DNA transfection efficiency” value was determined as 0.4%.

`CCCCCCCCCCCCCCCCCCSc1nc(NCCCN2CCN(C)CC2)nc(SCCCCCCCCCCCC)n1` [Compound S12S18D9]: the “Absolute DNA transfection efficiency” value amounted to 1.0%.

For the molecule `CCCCCCCCCCCCCCCCCCSc1nc(NCC2CCN(C)CC2)nc(SCCCCCCCCCCCC)n1` [Compound S12S18D10], the “Absolute DNA transfection efficiency” value turned out to be 7.5%.

With `CCCCCCCCCCCCCCSc1nc(NCCN(C)C)nc(SCCCCCCCCCCCCCC)n1` [Compound S14S14D1], the “Absolute DNA transfection efficiency” value is listed as 0.1%.

`CCCCCCCCCCCCCCSc1nc(NCCN2CCOCC2)nc(SCCCCCCCCCCCCCC)n1` [Compound S14S14D2]: the “Absolute DNA transfection efficiency” value is given as 0.0%.

As for `CCCCCCCCCCCCCCSc1nc(NCCN2CCCC2)nc(SCCCCCCCCCCCCCC)n1` [Compound S14S14D3], the “Absolute DNA transfection efficiency” value is listed as 0.2%.

Consider `CCCCCCCCCCCCCCSc1nc(NCCN2CCCCC2)nc(SCCCCCCCCCCCCCC)n1` [Compound S14S14D4], for which the “Absolute DNA transfection efficiency” value was 0.7%.

For the molecule `CCCCCCCCCCCCCCSc1nc(NCCN2CCN(C)CC2)nc(SCCCCCCCCCCCCCC)n1` [Compound S14S14D5], the “Absolute DNA transfection efficiency” value worked out at 0.0%.

Turning to `CCCCCCCCCCCCCCSc1nc(NCCCN(C)C)nc(SCCCCCCCCCCCCCC)n1` [Compound S14S14D6], the “Absolute DNA transfection efficiency” value is on record as 0.2%.

Regarding `CCCCCCCCCCCCCCSc1nc(NCCN(CC)CC)nc(SCCCCCCCCCCCCCC)n1` [Compound S14S14D7], the “Absolute DNA transfection efficiency” value is given as 2.3%.

As to `CCCCCCCCCCCCCCSc1nc(NCCCN2CCOCC2)nc(SCCCCCCCCCCCCCC)n1` [Compound S14S14D8], the “Absolute DNA transfection efficiency” value was found to be 0.0%.

As to `CCCCCCCCCCCCCCSc1nc(NCCCN2CCN(C)CC2)nc(SCCCCCCCCCCCCCC)n1` [Compound S14S14D9], the “Absolute DNA transfection efficiency” value worked out at 0.0%.

Take `CCCCCCCCCCCCCCSc1nc(NCC2CCN(C)CC2)nc(SCCCCCCCCCCCCCC)n1` [Compound S14S14D10]: the “Absolute DNA transfection efficiency” value was found to be 0.9%.

Turning to `CCCCCCCCCCCCCCCSc1nc(NCCN(C)C)nc(SCCCCCCCCCCCCCC)n1` [Compound S14S15D1], the “Absolute DNA transfection efficiency” value is given as 0.1%.

A further test concerns HEK293 cells. The test can be described thus: Preliminary screening as mRNA vectors, EGFP mRNA transfection of HEK293 cells. The format is cell-based. The following applies: HEK293 cells, 96-well plates, EGFP mRNA 50 ng per well; percentage of GFP fluorescent cells relative to total number of cells (Hoechst). The essentials: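 Each well of HEK293 cells received 50 ng of EGFP mRNA. Efficiency was expressed as percent GFP-expressing cells over Hoechst-defined total cell number.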
With `CCCCCCCCCCCCCCCCCCSc1nc(NCCN(C)C)nc(SCCCCCCCCCCCC)n1` [Compound S12S18D1], the “Absolute mRNA transfection efficiency in HEK293 cells” value (shortened to “Absolute mRNA transfection efficiency”) turned out to be 0.0%.

For `CCCCCCCCCCCCCCCCCCSc1nc(NCCN2CCOCC2)nc(SCCCCCCCCCCCC)n1` [Compound S12S18D2], the “Absolute mRNA transfection efficiency” value is 0.0%.

Consider `CCCCCCCCCCCCCCCCCCSc1nc(NCCN2CCCC2)nc(SCCCCCCCCCCCC)n1` [Compound S12S18D3], for which the “Absolute mRNA transfection efficiency” value was determined as 0.2%.

For the molecule `CCCCCCCCCCCCCCCCCCSc1nc(NCCN2CCCCC2)nc(SCCCCCCCCCCCC)n1` [Compound S12S18D4], the “Absolute mRNA transfection efficiency” value was 5.1%.

Consider `CCCCCCCCCCCCCCCCCCSc1nc(NCCN2CCN(C)CC2)nc(SCCCCCCCCCCCC)n1` [Compound S12S18D5], for which the “Absolute mRNA transfection efficiency” value worked out at 0.0%.

With `CCCCCCCCCCCCCCCCCCSc1nc(NCCCN(C)C)nc(SCCCCCCCCCCCC)n1` [Compound S12S18D6], the “Absolute mRNA transfection efficiency” value was found to be 0.1%.

In the case of `CCCCCCCCCCCCCCCCCCSc1nc(NCCN(CC)CC)nc(SCCCCCCCCCCCC)n1` [Compound S12S18D7], the “Absolute mRNA transfection efficiency” value is reported as 0.0%.

On to `CCCCCCCCCCCCCCCCCCSc1nc(NCCCN2CCOCC2)nc(SCCCCCCCCCCCC)n1` [Compound S12S18D8], for which the “Absolute mRNA transfection efficiency” value is given as 0.0%.

Take `CCCCCCCCCCCCCCCCCCSc1nc(NCCCN2CCN(C)CC2)nc(SCCCCCCCCCCCC)n1` [Compound S12S18D9]: the “Absolute mRNA transfection efficiency” value is 0.0%.

For the molecule `CCCCCCCCCCCCCCCCCCSc1nc(NCC2CCN(C)CC2)nc(SCCCCCCCCCCCC)n1` [Compound S12S18D10], the “Absolute mRNA transfection efficiency” value is 7.7%.

With `CCCCCCCCCCCCCCSc1nc(NCCN(C)C)nc(SCCCCCCCCCCCCCC)n1` [Compound S14S14D1], the “Absolute mRNA transfection efficiency” value is on record as 0.0%.

In the case of `CCCCCCCCCCCCCCSc1nc(NCCN2CCOCC2)nc(SCCCCCCCCCCCCCC)n1` [Compound S14S14D2], the “Absolute mRNA transfection efficiency” value amounted to 0.0%.

For the molecule `CCCCCCCCCCCCCCSc1nc(NCCN2CCCC2)nc(SCCCCCCCCCCCCCC)n1` [Compound S14S14D3], the “Absolute mRNA transfection efficiency” value turned out to be 0.1%.

With `CCCCCCCCCCCCCCSc1nc(NCCN2CCCCC2)nc(SCCCCCCCCCCCCCC)n1` [Compound S14S14D4], the “Absolute mRNA transfection efficiency” value was found to be 0.8%.

Regarding `CCCCCCCCCCCCCCSc1nc(NCCN2CCN(C)CC2)nc(SCCCCCCCCCCCCCC)n1` [Compound S14S14D5], the “Absolute mRNA transfection efficiency” value amounted to 0.0%.

With `CCCCCCCCCCCCCCSc1nc(NCCCN(C)C)nc(SCCCCCCCCCCCCCC)n1` [Compound S14S14D6], the “Absolute mRNA transfection efficiency” value was 0.2%.

With `CCCCCCCCCCCCCCSc1nc(NCCN(CC)CC)nc(SCCCCCCCCCCCCCC)n1` [Compound S14S14D7], the “Absolute mRNA transfection efficiency” value came to 2.8%.

Regarding `CCCCCCCCCCCCCCSc1nc(NCCCN2CCOCC2)nc(SCCCCCCCCCCCCCC)n1` [Compound S14S14D8], the “Absolute mRNA transfection efficiency” value came to 0.0%.

For `CCCCCCCCCCCCCCSc1nc(NCCCN2CCN(C)CC2)nc(SCCCCCCCCCCCCCC)n1` [Compound S14S14D9], the “Absolute mRNA transfection efficiency” value stood at 0.0%.

As to `CCCCCCCCCCCCCCSc1nc(NCC2CCN(C)CC2)nc(SCCCCCCCCCCCCCC)n1` [Compound S14S14D10], the “Absolute mRNA transfection efficiency” value came out at 1.5%.

For `CCCCCCCCCCCCCCCSc1nc(NCCN(C)C)nc(SCCCCCCCCCCCCCC)n1` [Compound S14S15D1], the “Absolute mRNA transfection efficiency” value is given as 0.0%.

The record behind these values is patent publication US20230123334A1, “AMINO LIPID COMPOUND, PREPARATION METHOD THEREFOR, AND APPLICATION THEREOF” (SHENZHEN SHENXIN BIOTECHNOLOGY CO., LTD., priority 2020, published 2023).
